Earlier results as cited in article PMC3035168 (Chemistry & biology, 2010).
Residues, ends and D or L forms follow the SMILES beside them. *: point of attachment. Cbz = O=C(OCc1ccccc1)*; CH2F = FC*

Experiments:
[1] = mouse, in vivo
[2] = test system: HD transgenic mouse models; conditions: ref Chen et al., 2000
striatal neurons = conditions: ref Schulz et al., 1998

C[C@H](NC(=O)C(=O)Nc1ccccc1C(C)(C)C)C(=O)N[C@@H](CC(=O)O)C(=O)COc1c(F)c(F)cc(F)c1F [IDN-6556]
toxicity [1]: nontoxic

CN(C)c1ccc(O)c2c1C[C@H]1C[C@H]3[C@H](N(C)C)C(O)=C(C(N)=O)C(=O)[C@@]3(O)C(O)=C1C2=O [minocycline]
effect on cell death ([2]; HD transgenic mouse models): delays cell death
effect on caspase-1 and caspase-3 transcription ([2]; through indirect means): inhibits caspase-1 and caspase-3 transcriptional upregulation

COC(=O)C[C@H](NC(=O)[C@H](C)NC(=O)[C@@H](NC(=O)OCc1ccccc1)C(C)C)C(=O)CF [zVAD-fmk] (Cbz-Val-Ala-Asp(OMe)-CH2F)
protection against malonate-induced excitoxicity (striatal neurons): protected striatal neurons
